Source: patent publication US11717471B2, “Hydrogel microcapsules” (ISP Investments LLC, priority 2010, dated 2023)
Converted amounts (≈) assume the structure as drawn.

Columns and labels:
[1] = Solubility of amine monomers of Formula I in water; assay type: physicochemical
Text: The insolubility point was reached when a distinct two separate layers was observed.

[2] = Material Safety Data Sheet from Arkema Inc for Norsocryl; cited from earlier work
[3] = 0.1 g amine monomer/100 g deionised water
[4] = 0.2 g amine monomer/100 g deionised water
[5] = 0.3 g amine monomer/100 g deionised water
[6] = 0.4 g amine monomer/100 g deionised water
[7] = 0.5 g amine monomer/100 g deionised water
[8] = 1.0 g amine monomer/100 g deionised water
[9] = 1.5 g amine monomer/100 g deionised water
[10] = 2.0 g amine monomer/100 g deionised water
[11] = 2.5 g amine monomer/100 g deionised water
[12] = 5.0 g amine monomer/100 g deionised water
[13] = 7.5 g amine monomer/100 g deionised water
[14] = 10.0 g amine monomer/100 g deionised water
[15] = 12.5 g amine monomer/100 g deionised water
[16] = 15.0 g amine monomer/100 g deionised water

Row | solubility in water ([1]; quaternized monomer) | solubility in water [1, 3] | solubility in water [1, 4] | solubility in water [1, 5] | solubility in water [1, 6] | solubility in water [1, 7] | solubility in water [1, 8] | solubility in water [1, 9] | solubility in water [1, 10] | solubility in water [1, 11] | solubility in water [1, 12] | solubility in water [1, 13] | solubility in water [1, 14] | solubility in water [1, 15] | solubility in water [1, 16] | solubility in water ([1]; estimated from Table 2) | SMILES | solubility in water, published literature value [2] [mg/mL]
1 | completely water soluble |  |  |  |  |  |  |  |  |  |  |  |  |  |  |  | C=C(C)C(=O)OCC[N+](C)(CC)CC.COS(=O)(=O)[O-] [DEAEMA Quat DMS, Diethylaminoethyl methacrylate dimethyl sulphate quaternary ammonium form] | 
2 |  | soluble | insoluble | insoluble | insoluble | insoluble | insoluble | insoluble | insoluble | insoluble | insoluble | insoluble | insoluble | insoluble | insoluble |  | C=C(C)C(=O)OCCN(CC)CC [DEAEMA, diethylaminoethyl methacrylate] | 
3 |  | soluble | insoluble | insoluble | insoluble | insoluble | insoluble | insoluble | insoluble | insoluble | insoluble | insoluble | insoluble | insoluble | insoluble |  | C=C(C)C(=O)OCCN(C(C)C)C(C)C [DPAEMA, Diisopropylaminoethyl methacrylate] | 
4 |  | soluble | soluble | soluble | soluble | soluble | soluble | soluble | insoluble | insoluble | insoluble | insoluble | insoluble | insoluble | insoluble | less than 2 g/100 g water | C=C(C)C(=O)OCCNC(C)(C)C [TBAEMA, tertiary-butylaminoethyl methacrylate] | 18 (≈ 97.2 mM)
